Results as given in patent US8829194B2, “Crystalline forms of the sodium salt of (4-{4-[5-(6-trifluoromethyl-pyridin-3-ylamino)-pyridin-2-yl]-phenyl}-cyclohexyl)-acetic acid” (Novartis AG, priority 2010, dated 2014).
Blank lines part the entries; values can stand above or below the molecule they belong to.

Legend:
Format in all cases: physicochemical
[1] = Water loss as a function of temperature by TG/DTA (loss on drying, thermal transitions); conditions: for LOD (thermal transitions): DTA signals, temperature at which the water is lost; for Loss On Drying (LOD) (%): total water loss by thermogravimetry, rt-295° C., 10°/min
Excerpt: (ii) Thermogravimetric/Differential Thermal Analysis (TG/DTA) […]
The data listed below show the total water loss (LOD by thermogravimetry (TG)) and thermal transitions (DTA signals) show the temperature at which the water is lost.

[2] = Physical stability of the crystalline forms (relative humidity, absorption-desorption isotherm FIG. 1, temperature, storage); conditions: absorption-desorption isotherm, FIG. 1
[3] = Humidity microbalance analysis (VTI), moisture sorption at 25° C.; conditions: for hygroscopicity / moisture uptake in words: variations in humidity
Excerpt: Thus, Modification C retains a stable weight from 0% relative humidity to 80% relative humidity while Modification A loses water with decreasing humidity and gains moisture with increasing humidity. With Modification C, a re-hydration step and the possible variability in water content between batches may thus be eliminated.
Modification N is particularly suitable for industrial scale-up. It is a crystalline anhydrous form.
Modification O is particularly suitable for industrial scale-up. It is a crystalline anhydrous form.

LOD (thermal transitions) ([1]; listed as P): 65 °C
Loss On Drying (LOD) (%) ([1]; listed as P): 10.9%
Structure (SMILES): O=C([O-])C[C@H]1CC[C@H](c2ccc(-c3ccc(Nc4ccc(C(F)(F)F)nc4)cn3)cc2)CC1.[Na+] [Modification P, sodium salt of (4-{4-[5-(6-trifluoromethyl-pyridin-3-ylamino)-pyridin-2-yl]-phenyl}-cyclohexyl)-acetic acid]

Loss On Drying (LOD) (%) ([1]; listed as G): 11.7%
Structure (SMILES): O=C([O-])C[C@H]1CC[C@H](c2ccc(-c3ccc(Nc4ccc(C(F)(F)F)nc4)cn3)cc2)CC1.[Na+] [Modification G, sodium salt of (4-{4-[5-(6-trifluoromethyl-pyridin-3-ylamino)-pyridin-2-yl]-phenyl}-cyclohexyl)-acetic acid]

LOD (thermal transitions) ([1]; listed as F): 90 °C
Loss On Drying (LOD) (%) ([1]; listed as F): 3.5%
Structure (SMILES): O=C([O-])C[C@H]1CC[C@H](c2ccc(-c3ccc(Nc4ccc(C(F)(F)F)nc4)cn3)cc2)CC1.[Na+] [Modification F, sodium salt of (4-{4-[5-(6-trifluoromethyl-pyridin-3-ylamino)-pyridin-2-yl]-phenyl}-cyclohexyl)-acetic acid]

LOD (thermal transitions) ([1]; listed as L): 65 °C
Loss On Drying (LOD) (%) ([1]; listed as L): 14.9%
Structure (SMILES): O=C([O-])C[C@H]1CC[C@H](c2ccc(-c3ccc(Nc4ccc(C(F)(F)F)nc4)cn3)cc2)CC1.[Na+] [Modification L, sodium salt of (4-{4-[5-(6-trifluoromethyl-pyridin-3-ylamino)-pyridin-2-yl]-phenyl}-cyclohexyl)-acetic acid]

LOD (thermal transitions) ([1]; listed as D): 84.5 °C
Loss On Drying (LOD) (%) ([1]; listed as D): 12.4%
Structure (SMILES): O=C([O-])C[C@H]1CC[C@H](c2ccc(-c3ccc(Nc4ccc(C(F)(F)F)nc4)cn3)cc2)CC1.[Na+] [Modification D, sodium salt of (4-{4-[5-(6-trifluoromethyl-pyridin-3-ylamino)-pyridin-2-yl]-phenyl}-cyclohexyl)-acetic acid]

Loss On Drying (LOD) (%) ([1]; listed as I): 9.5%
Structure (SMILES): O=C([O-])C[C@H]1CC[C@H](c2ccc(-c3ccc(Nc4ccc(C(F)(F)F)nc4)cn3)cc2)CC1.[Na+] [Modification I, sodium salt of (4-{4-[5-(6-trifluoromethyl-pyridin-3-ylamino)-pyridin-2-yl]-phenyl}-cyclohexyl)-acetic acid]

LOD (thermal transitions) ([1]; listed as M): None
Loss On Drying (LOD) (%) ([1]; listed as M): 0%
relative humidity range in which the form is stable [2]: below 10 % relative humidity
Structure (SMILES): O=C([O-])C[C@H]1CC[C@H](c2ccc(-c3ccc(Nc4ccc(C(F)(F)F)nc4)cn3)cc2)CC1.[Na+] [Modification M, sodium salt of (4-{4-[5-(6-trifluoromethyl-pyridin-3-ylamino)-pyridin-2-yl]-phenyl}-cyclohexyl)-acetic acid]

Loss On Drying (LOD) (%) ([1]; listed as B): 6.9%
Structure (SMILES): O=C([O-])C[C@H]1CC[C@H](c2ccc(-c3ccc(Nc4ccc(C(F)(F)F)nc4)cn3)cc2)CC1.[Na+] [Modification B, sodium salt of (4-{4-[5-(6-trifluoromethyl-pyridin-3-ylamino)-pyridin-2-yl]-phenyl}-cyclohexyl)-acetic acid]

relative humidity at which moisture gain starts / becomes significant [3]: 80 % relative humidity
Mass uptake (% water absorbed) ([3]; 0 % residual humidity): 0.0%
Mass uptake (% water absorbed) ([3]; 10 % residual humidity): 0.0%
Mass uptake (% water absorbed) ([3]; 50 % residual humidity): −0.5%
Mass uptake (% water absorbed) ([3]; 60 % residual humidity): −0.5%
Mass uptake (% water absorbed) ([3]; 70 % residual humidity): −0.5%
Mass uptake (% water absorbed) ([3]; 79 % residual humidity): −0.4%
Mass uptake (% water absorbed) ([3]; 90 % residual humidity): 4.3%
Mass uptake (% water absorbed) ([3]; 95 % residual humidity): 13.3%
hygroscopicity / moisture uptake in words [3]: low hygroscopicity
LOD (thermal transitions) [1]: None
Loss On Drying (LOD) (%) [1]: 1.2%
Structure (SMILES): O=C([O-])C[C@H]1CC[C@H](c2ccc(-c3ccc(Nc4ccc(C(F)(F)F)nc4)cn3)cc2)CC1.[Na+] [Modification O, sodium salt of (4-{4-[5-(6-trifluoromethyl-pyridin-3-ylamino)-pyridin-2-yl]-phenyl}-cyclohexyl)-acetic acid]

Loss On Drying (LOD) (%) ([1]; listed as E): 9.5%
Structure (SMILES): O=C([O-])C[C@H]1CC[C@H](c2ccc(-c3ccc(Nc4ccc(C(F)(F)F)nc4)cn3)cc2)CC1.[Na+] [Modification E, sodium salt of (4-{4-[5-(6-trifluoromethyl-pyridin-3-ylamino)-pyridin-2-yl]-phenyl}-cyclohexyl)-acetic acid]

relative humidity at which moisture gain starts / becomes significant [3]: 70 % relative humidity
Mass uptake (% water absorbed) ([3]; 0 % residual humidity): 0.0%
Mass uptake (% water absorbed) ([3]; 10 % residual humidity): 0.1%
Mass uptake (% water absorbed) ([3]; 50 % residual humidity): 0.7%
Mass uptake (% water absorbed) ([3]; 60 % residual humidity): 0.9%
Mass uptake (% water absorbed) ([3]; 70 % residual humidity): 1.0%
Mass uptake (% water absorbed) ([3]; 79 % residual humidity): 3.7%
Mass uptake (% water absorbed) ([3]; 90 % residual humidity): 18.2%
Mass uptake (% water absorbed) ([3]; 95 % residual humidity): 19.1%
hygroscopicity / moisture uptake in words [3]: low hygroscopicity
LOD (thermal transitions) [1]: None
Loss On Drying (LOD) (%) [1]: 0.3%
Structure (SMILES): O=C([O-])C[C@H]1CC[C@H](c2ccc(-c3ccc(Nc4ccc(C(F)(F)F)nc4)cn3)cc2)CC1.[Na+] [Modification N, sodium salt of (4-{4-[5-(6-trifluoromethyl-pyridin-3-ylamino)-pyridin-2-yl]-phenyl}-cyclohexyl)-acetic acid]

LOD (thermal transitions) ([1]; listed as H): 68.3 °C
Loss On Drying (LOD) (%) ([1]; listed as H): 3%
Structure (SMILES): O=C([O-])C[C@H]1CC[C@H](c2ccc(-c3ccc(Nc4ccc(C(F)(F)F)nc4)cn3)cc2)CC1.[Na+] [Modification H, sodium salt of (4-{4-[5-(6-trifluoromethyl-pyridin-3-ylamino)-pyridin-2-yl]-phenyl}-cyclohexyl)-acetic acid]

Loss On Drying (LOD) (%) ([1]; listed as J): 3.1%
Structure (SMILES): O=C([O-])C[C@H]1CC[C@H](c2ccc(-c3ccc(Nc4ccc(C(F)(F)F)nc4)cn3)cc2)CC1.[Na+] [Modification J, sodium salt of (4-{4-[5-(6-trifluoromethyl-pyridin-3-ylamino)-pyridin-2-yl]-phenyl}-cyclohexyl)-acetic acid]
